ChEMBL document CHEMBL4402520, “Synthetic routes and structure-activity relationships (SAR) of anti-HIV agents: A key review” (Eur J Med Chem, 2019)
Converted amounts (≈) assume the structure as drawn.

Columns and labels:
[1] = test system: Human immunodeficiency virus; test: Antiviral activity against HIV; assay type: functional, organism-based; conditions: Human immunodeficiency virus 1
TZM [2] = test: Cytotoxicity against human TZM-bl cells; assay type: functional
[3] = Selectivity index, ratio of CC50 for human TZM-bl cells to EC50 for wild type HIV1 3B infected in human TZM-bl cells; assay type: toxicity, cell-based; conditions: read-out: Selectivity Index
[4] = test system: Human immunodeficiency virus 1; test: Antiviral activity against wild type HIV1 3B infected in human TZM-bl cells after 4 days by ELISA; assay type: functional, organism-based; conditions: Human immunodeficiency virus 1, 3B, 96 h
C8166 = test: Cytotoxicity against human C8166 cells assessed as reduction in cell viability; assay type: functional, cell-based
[5] = test system: Human immunodeficiency virus 2; test: Antiviral activity against HIV2 ROD; assay type: functional, organism-based; conditions: Human immunodeficiency virus 2, ROD
[6] = test system: Human immunodeficiency virus 1; test: Antiviral activity against HIV1 3B; assay type: functional, organism-based; conditions: Human immunodeficiency virus 1, 3B
[7] = Inhibition of HIV-2 ROD9 integrase Y143C mutant; design: species or system Human immunodeficiency virus 2
[8] = target: T1, Human immunodeficiency virus type 2 integrase (Human immunodeficiency virus 2, UniProt P89582); test: Inhibition of wild type HIV-2 ROD9 integrase
T1 sequence (P89582 whole entry): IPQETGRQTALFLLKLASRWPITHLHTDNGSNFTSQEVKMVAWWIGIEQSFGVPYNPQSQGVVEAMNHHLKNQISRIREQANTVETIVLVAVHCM

[9] = Inhibition of HIV-2 ROD9 integrase N155H mutant; design: species or system Human immunodeficiency virus 2
[10] = Inhibition of HIV-2 ROD9 integrase T97A mutant; design: species or system Human immunodeficiency virus 2
[11] = Inhibition of HIV-2 ROD9 integrase E92Q mutant; design: species or system Human immunodeficiency virus 2
[12] = Inhibition of HIV-2 ROD9 integrase Q148R mutant; design: species or system Human immunodeficiency virus 2
[13] = Inhibition of HIV-2 ROD9 integrase G140S/Q148R double mutant; design: species or system Human immunodeficiency virus 2
[14] = Inhibition of HIV-2 ROD9 integrase G140S mutant; design: species or system Human immunodeficiency virus 2
[15] = Inhibition of HIV-2 ROD9 integrase E92Q/Y143C double mutant; design: species or system Human immunodeficiency virus 2
[16] = Inhibition of HIV-2 ROD9 integrase T97A/N155H double mutant; design: species or system Human immunodeficiency virus 2
[17] = Inhibition of HIV-2 ROD9 integrase E92Q/N155H double mutant; design: species or system Human immunodeficiency virus 2
[18] = Inhibition of HIV-2 ROD9 integrase T97A/Y143C double mutant; design: species or system Human immunodeficiency virus 2
[19] = Inhibition of HIV-2 ROD9 integrase Q148H mutant; design: species or system Human immunodeficiency virus 2
TZM [20] = test: Cytotoxicity against human TZM-bl cells assessed as reduction in cell viability after 4 hrs by MTT assay; assay type: functional
[21] = test system: Human immunodeficiency virus 1; test: Antiviral activity against wild type HIV1 3B infected in human TZM-bl cells assessed as viral infection at 50 ug/ml after 1 hr relative to control; assay type: functional; conditions: Human immunodeficiency virus 1, 3B
[22] = test system: Human immunodeficiency virus 1; test: Antiviral activity against wild type HIV1 3B infected in human MT4 cells using [3H]dGTP by radio-labelled binding assay; assay type: functional, organism-based; conditions: Human immunodeficiency virus 1, 3B
[23] = test system: Human immunodeficiency virus 1; test: Antiviral activity against HIV1 3B after 48 hrs […]; assay type: functional, organism-based; conditions: Human immunodeficiency virus 1, 3B
[24] = test system: Human immunodeficiency virus 2; test: Antiviral activity against HIV2 ROD after 48 hrs […]; assay type: functional, organism-based; conditions: Human immunodeficiency virus 2, ROD
[25] = test system: Human immunodeficiency virus 1; test: Antiviral activity against HIV1; assay type: functional, organism-based
[26] = target: T2, Human immunodeficiency virus type 1 reverse transcriptase (Human immunodeficiency virus 1, UniProt Q72547); test: Inhibition of wild type HIV-1 reverse transcriptase
[27] = test system: Human immunodeficiency virus 1; test: Antiviral activity against wild type HIV1 3B infected in human TZM-bl cells; assay type: functional, organism-based; conditions: Human immunodeficiency virus 1, 3B
[28] = test system: Human immunodeficiency virus 1; test: Antiviral activity against HIV1 3B infected in human C8166 cells; assay type: functional, organism-based
[29] = Selectivity index, ratio of CC50 for human C8166 cells to EC50 for HIV1 3B infected in human C8166 cells; assay type: toxicity, cell-based; conditions: read-out: Selectivity Index
[30] = target: T2, Human immunodeficiency virus type 1 reverse transcriptase; test: Inhibition of HIV-1 reverse transcriptase after 1 hr by ELISA
[31] = Inhibition of HIV reverse transcriptase; design: species or system Human immunodeficiency virus
HeLa = test: Cytotoxicity against human HeLa cells expressing CD4-LTR-beta-gal assessed as reduction in cell viability; assay type: functional
[32] = test system: Human immunodeficiency virus; test: Antiviral activity against HIV infected in human HeLa cells expressing CD4-LTR-beta-gal; assay type: functional, organism-based; conditions: Human immunodeficiency virus 1, HeLa
[33] = test system: Human immunodeficiency virus 1; test: Antiviral activity against HIV1 3B infected in human MT4 cells; assay type: functional, organism-based; conditions: Human immunodeficiency virus 1, 3B

Cc1cc(C)cc(Cn2c(=O)cc(N)n(Cc3ccncc3)c2=O)c1
EC50 [1]: 30 nM

CCC1OC(=O)c2ccccc2C1(Cl)c1ccc(F)cc1 (stereo unspecified)
CC50 (TZM [2]): 263000 nM | selectivity ratio [3]: 2.1 | EC50 [4]: 126000 nM

Cc1cn([C@H]2C[C@H](N=[N+]=[N-])[C@@H](CO)O2)c(=O)[nH]c1=O [ZIDOVUDINE]
IC50 (C8166): 1570 µg/mL (≈ 5860 µM)

Cn1cc(C(=O)O)c(=O)c2ccc(N3CCN(c4nc5ccccc5s4)CC3)nc21
EC50 [5]: 0.02 µg/mL (≈ 0.0475 µM) | EC50 [6]: 0.03 µg/mL (≈ 0.0712 µM)

C[C@@H]1CCO[C@H]2Cn3cc(C(=O)NCc4ccc(F)cc4F)c(=O)c(O)c3C(=O)N12 [DOLUTEGRAVIR]
EC50 [7]: 7.7 nM | EC50 [8]: 2.3 nM | EC50 [9]: 5 nM | EC50 [10]: 3.2 nM | EC50 [11]: 7.7 nM | EC50 [12]: 5.7 nM | EC50 [13]: 108 nM | EC50 [14]: 3.2 nM | EC50 [15]: 15 nM | EC50 [16]: 27 nM | EC50 [17]: 25 nM | EC50 [18]: > 10000 nM | EC50 [19]: 3.5 nM

NC1=CNC(=O)/C1=N/Nc1cccc(Cl)c1
Activity (TZM [20]): 52% | inhibition at 50 µg/mL [21]: 93%

CC1OC(=O)c2ccccc2C1(Cl)c1ccccc1 (stereo unspecified)
CC50 (TZM [2]): 293000 nM | selectivity ratio [3]: 10 | EC50 [4]: 29300 nM

Cc1cccc(N2C(=O)CSC2c2c(F)cccc2Cl)n1 (stereo unspecified)
IC50 [22]: 53 nM

Cc1ccc(NC(=O)CSC2[Se]N=NC2c2ccc(Cl)c(Cl)c2)cc1 (stereo unspecified)
EC50 [23]: 6650 nM | EC50 [24]: > 13300 nM

Cn1cc(C(=O)O)c(=O)c2ccc(N3CCN(c4ccccn4)CC3)nc21
EC50 [5]: 0.55 µg/mL (≈ 1.51 µM) | EC50 [6]: 0.62 µg/mL (≈ 1.7 µM)

CC1OC(=O)c2ccccc2C1(Cl)c1ccc(C#Cc2ccccc2)cc1 (stereo unspecified)
CC50 (TZM [2]): 215000 nM | selectivity ratio [3]: 0.9 | EC50 [4]: 242000 nM

Cc1ccc(NC(=O)CSC2[Se]N=NC2c2ccc(Cl)c(Cl)c2)c([N+](=O)[O-])c1 (stereo unspecified)
EC50 [23]: 5420 nM | EC50 [24]: > 26300 nM

CC(C)(NC(=O)OCc1ccccc1)c1cc(O)c(O)c(C(=O)NCc2ccccc2Cl)c1
EC50 [25]: 140 nM

COC(=O)CCCC=C(c1cc(Cl)c(OC)c(C(=O)SC)c1)c1cc(Cl)c(OC)c(C(=O)SC)c1
EC50 [26]: 1600 nM

CCOC(=O)C(N)(c1c[nH]c2cccc(C(=O)OC)c12)C(F)(F)F (stereo unspecified)
CC50 (TZM [2]): 110000 nM | EC50 [27]: 60 nM

CC(C)c1c(CC2CCCCC2)nc(SCC(=O)c2ccccc2)[nH]c1=O
EC50 [28]: 0.012 to 101 nM | selectivity ratio [29]: 691 to 6.32e+06

COc1ccc2c(c1)CCCN2CCC(=O)N1CCN(c2cccc(Cl)c2)CC1
selectivity ratio [29]: 5.3 | IC50 (C8166): 97.5 µg/mL (≈ 236 µM) | IC50 [30]: 18600 nM

CC(C)c1c(CC2CCCCC2)nc(SCc2ccccc2)[nH]c1=O
EC50 ([28]; Human immunodeficiency virus 1, 3B, C8166): 0.025 nM | selectivity ratio [29]: 691 to 6.32e+06

COc1ccc2c(c1)CCCN2CCC(=O)N1CCN(c2ccccc2C)CC1
selectivity ratio [29]: 24.2 | IC50 (C8166): 114 µg/mL (≈ 291 µM) | IC50 [30]: 12500 nM

COc1ccc(N2CCN(C(=O)CN(Cc3ccccc3)c3ccc(Cl)cc3)CC2)cc1
IC50 [31]: 77500 nM

CCCC1OC(=O)c2ccccc2C1(Cl)c1ccc(F)cc1 (stereo unspecified)
CC50 (TZM [2]): 251000 nM | selectivity ratio [3]: 0.8 | EC50 [4]: 314000 nM

O=C(O)/C(O)=C/C(=O)c1cn(Cc2ccc(F)cc2)c2cc(N3CCN(CCCCl)CC3)ccc2c1=O
CC50 (HeLa): > 50000 nM | IC50 [32]: 50 nM

O=C(CN(Cc1ccccc1)c1ccc(Cl)cc1)N1CCN(c2cccc(Cl)c2Cl)CC1
IC50 [31]: 12300 nM

Cc1ccccc1NC(=O)CSC1[Se]N=NC1c1ccc(Cl)c(Cl)c1 (stereo unspecified)
EC50 [23]: 5560 nM | EC50 [24]: > 22300 nM

Cc1cc(C)cc(S(=O)(=O)c2c(C(=O)NCc3ccncc3)[nH]c3ccc(Cl)cc23)c1
EC50 [33]: 2 nM

Cn1cc(C(=O)O)c(=O)c2ccc(N3CCN(c4cccc(C(F)(F)F)c4)CC3)nc21
EC50 [5]: > 0.41 µg/mL | EC50 [6]: > 0.41 µg/mL
